A value given as a limit tells only on which side of the number the result lay.

Assay [1] has as its target T1, Recombinant ROCK2 (amino acids 5-554) (Homo sapiens, UniProt O75116).
T1 construct: ROCK2 (amino acids 5-554); by word order, ROCK2 from SignalChem
As to the kind of experiment: ROCK inhibition assay, LANCE Ultra TR-FRET kinase assay (ROCK2). The class given is biochemical. The conditions noted are these: 4 μM ATP, 50 nM ULight-CREBtide substrate. The method, boiled down: (§1)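 Reaction buffer 50 mM HEPES pH 7.5, 10 mM MgCl2, 1 mM EGTA, 2 mM DTT; kinase, ULight-CREBtide (50 nM) and ATP (ROCK1 1 μM, ROCK2 4 μM) react 1 h at room temperature. Phospho-Ser133 detected by europium antibody after 10 mM EDTA stop, TR-FRET ex 320 nm; IC50 calculated.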

In assay [2] the target is T2, Recombinant ROCK1 (amino acids 1-477) (Homo sapiens, UniProt Q13464).
T2 construct: Recombinant ROCK1 (amino acids 1-477); by word order, ROCK1 from Carna Biosciences
T2 sequence (Q13464 1-477): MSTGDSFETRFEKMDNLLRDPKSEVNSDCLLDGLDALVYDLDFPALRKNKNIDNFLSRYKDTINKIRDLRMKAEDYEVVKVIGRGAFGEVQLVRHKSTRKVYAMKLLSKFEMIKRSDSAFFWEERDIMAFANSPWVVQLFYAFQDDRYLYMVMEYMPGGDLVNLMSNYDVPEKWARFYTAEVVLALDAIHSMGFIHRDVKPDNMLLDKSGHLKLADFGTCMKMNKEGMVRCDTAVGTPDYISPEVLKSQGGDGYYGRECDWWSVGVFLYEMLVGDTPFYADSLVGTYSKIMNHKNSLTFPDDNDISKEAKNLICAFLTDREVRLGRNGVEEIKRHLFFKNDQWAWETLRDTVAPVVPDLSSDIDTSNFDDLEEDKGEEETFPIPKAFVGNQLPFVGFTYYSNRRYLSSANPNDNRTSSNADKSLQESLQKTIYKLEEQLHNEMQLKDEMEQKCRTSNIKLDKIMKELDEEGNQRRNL
Kind of assay: ROCK inhibition assay, LANCE Ultra TR-FRET kinase assay (ROCK1). The following applies: 1 μM ATP, 50 nM ULight-CREBtide substrate. The class given is biochemical. The method, boiled down: as §1

T1 sequence (O75116 5-554): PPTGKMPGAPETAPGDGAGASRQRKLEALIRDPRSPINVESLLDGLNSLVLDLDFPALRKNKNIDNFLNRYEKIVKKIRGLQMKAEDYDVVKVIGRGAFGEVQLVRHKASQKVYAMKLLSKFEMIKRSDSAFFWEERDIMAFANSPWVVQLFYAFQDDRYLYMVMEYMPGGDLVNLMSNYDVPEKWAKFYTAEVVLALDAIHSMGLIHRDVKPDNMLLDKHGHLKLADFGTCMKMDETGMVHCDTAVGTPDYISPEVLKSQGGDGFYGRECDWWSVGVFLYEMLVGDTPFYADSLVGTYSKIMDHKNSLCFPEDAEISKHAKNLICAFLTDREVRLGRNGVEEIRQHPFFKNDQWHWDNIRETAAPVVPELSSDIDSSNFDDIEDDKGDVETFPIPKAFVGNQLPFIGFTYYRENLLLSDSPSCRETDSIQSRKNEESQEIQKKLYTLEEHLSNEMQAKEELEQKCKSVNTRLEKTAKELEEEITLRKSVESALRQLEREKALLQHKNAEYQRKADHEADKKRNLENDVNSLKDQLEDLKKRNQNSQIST

As to `Nc1cc(-c2ccc3c(=O)n(Cc4cccc(C(=O)Nc5ccno5)c4)ccc3c2)ccn1` [Compound 203], the IC50 was 100 to 500 nM in assay [1] and more than 501 nM in assay [2].

On to `O=C(NCCc1ccccn1)c1cccc(Cn2ccc3cc(-c4cn[nH]c4)ccc3c2=O)c1` [Compound 27, 3-((1-oxo-6-(1H-pyrazol-4-yl)isoquinolin-2(1H)-yl)methyl)-N-(2-(pyridin-2-yl)ethyl)benzamide], for which the half-maximal inhibitory concentration (IC50) was less than 10 nM in assay [1] and 11 to 100 nM in assay [2].

`O=C(NCCN1CCOCC1)c1cc(F)cc(Cn2ccc3cc(N4CCOCC4)ccc3c2=O)c1` [Compound 229]: the IC50 is 10 to 100 nM in assay [1] and 11 to 100 nM in assay [2].

`CC(=O)Nc1cc(F)cc(Cn2ccc3cc(-c4conc4C)ccc3c2=O)c1` [Compound 351]: the half-maximal inhibitory concentration (IC50) in assay [1] was 10 to 100 nM; in assay [2], 101 to 500 nM.

In the case of `[2H]C([2H])([2H])NC(=O)c1cccc([C@@H](C)n2cnc3cc(-c4conc4C)ccc3c2=O)c1` [Compound 471], the 50% inhibitory concentration (IC50) in assay [1] was less than 10 nM; in assay [2] it was 11 to 100 nM.

Take `CC(C)N1CCC(NC(=O)c2cc(F)cc(Cn3ccc4cc(-c5ccnn5C)ccc4c3=O)c2)CC1` [Compound 175]: the IC50 in assay [1] lay in the range of 10 to 100 nM; in assay [2], 101 to 500 nM.

In the case of `Cn1nccc1-c1ccc2c(=O)n(Cc3cccc(C(=O)NC4CCN(C5COC5)CC4)c3)ccc2c1` [Compound 109], the IC50 in assay [1] was 10 to 100 nM; in assay [2], 101 to 500 nM.

For `N#Cc1cccc(C(CN)n2cnc3cc(-c4cn[nH]c4Cl)ccc3c2=O)c1` (stereo not shown) [Compound 504], the IC50 in assay [1] is 100 to 500 nM; in assay [2] it was more than 501 nM.

As to `CC(=O)Nc1cccc(Cn2ccc3cc(-c4c[nH]nc4C)ccc3c2=O)c1` [Compound 336], the half-maximal inhibitory concentration (IC50) was in the range of 10 to 100 nM in assay [1] and 101 to 500 nM in assay [2].

Turning to `CC(C)N1CCC(CNC(=O)c2cc(F)cc(Cn3ccc4cc(N5CCOCC5)ccc4c3=O)c2)CC1` [Compound 224], the values for the IC50 in assay [1] and in assay [2] were 10 to 100 nM and 101 to 500 nM, respectively.

Take `COc1cccc([C@@H](CO)N2CNc3cc(-c4cn[nH]c4C(F)(F)F)ccc3C2=O)c1` [Compound 528]: the concentration for half-maximal inhibition (IC50) in assay [1] was 100 to 500 nM; in assay [2] it was more than 501 nM.

As to `Nc1cc(-c2ccc3c(=O)n(Cc4cccc(C(=O)Nc5ccon5)c4)ccc3c2)ccn1` [Compound 204], the IC50 in assay [1] is 100 to 500 nM; in assay [2] it was more than 501 nM.

Take `CNC(=O)c1cccc(Cn2ccc3cc(-c4cc[nH]c4)ccc3c2=O)c1` [Compound 305]: the IC50 in assay [1] was 100 to 500 nM; in assay [2] it was 101 to 500 nM.

In the case of `[2H]C([2H])([2H])NC(=O)c1cccc(Cn2cnc3cc(-c4cn[nH]c4Br)ccc3c2=O)c1` [Compound 511], the half-maximal inhibitory concentration (IC50) in assay [1] was less than 10 nM; in assay [2], 11 to 100 nM.

Take `CNC(=O)c1cccc(Cn2cc(CC(C)O)c3cc(-c4cn[nH]c4C(F)F)ccc3c2=O)c1` (stereo not shown) [Compound 559]: the IC50 in assay [1] was less than 10 nM; in assay [2], 11 to 100 nM.

As for `Cc1nocc1-c1ccc2c(=O)n(Cc3cccc(C(=O)NCC(F)(F)F)c3)ccc2c1` [Compound 67], the concentration for half-maximal inhibition (IC50) in assay [1] was in the range of 10 to 100 nM; in assay [2], 11 to 100 nM.

With `COc1cccc(Cn2ccc3cc(-c4cn[nH]c4)ccc3c2=O)c1` [Compound 2, 2-(3-methoxybenzyl)-6-(1H-pyrazol-4-yl)isoquinolin-1(2H)-one], the half-maximal inhibitory concentration (IC50) in assay [1] lay in the range of 10 to 100 nM; in assay [2], 101 to 500 nM.

For `O=C(NCc1ccccc1)c1cccc(Cn2cnc3cc(-c4cn[nH]c4C(F)(F)F)ccc3c2=O)c1` [Compound 371], the IC50 in assay [1] was 10 to 100 nM; in assay [2] it was 101 to 500 nM.

With `CNC(=O)c1cccc(C(C)n2cc(CCN(C)C)c3cc(-c4cn[nH]c4C(F)(F)F)ccc3c2=O)c1` (stereo not shown) [Compound 563], the IC50 in assay [1] is less than 10 nM; in assay [2], 11 to 100 nM.

Take `C[C@H](c1cccc(C(=O)NCc2ccc(F)nc2)c1)n1cnc2cc(-c3cn[nH]c3N)ccc2c1=O` [Compound 522]: the half-inhibitory concentration (IC50) in assay [1] and in assay [2] was less than 10 nM in each case.

Take `O=C(Nc1ccccc1)c1cccc(Cn2ccc3cc(-c4cn[nH]c4)ccc3c2=O)c1` [Compound 29]: the IC50 in assay [1] was 100 to 500 nM; in assay [2], more than 501 nM.

Consider `Cc1nocc1-c1ccc2c(=O)n(Cc3cccc(C(=O)NCC4CCNCC4)c3)ccc2c1` [Compound 79], for which the concentration for half-maximal inhibition (IC50) in assay [1] is less than 10 nM; in assay [2], 11 to 100 nM.

Regarding `Cc1nocc1-c1ccc2c(=O)n([C@H](C)c3cccc(C(=O)NCCN4CCOCC4)c3)cnc2c1` [Compound 474], the IC50 in assay [1] is less than 10 nM; in assay [2] it was 11 to 100 nM.

For the compound `Cn1nccc1-c1ccc2c(=O)n(Cc3cccc(C(=O)NCC4COC4)c3)cnc2c1` [Compound 431], the figures for the IC50 in assay [1] and in assay [2] were 10 to 100 nM and 11 to 100 nM, respectively.

`COc1cccc(Cn2cnc3cc(-c4c[nH]nc4C)ccc3c2=O)c1` [Compound 355]: the IC50 in assay [1] lay in the range of 10 to 100 nM; in assay [2], 11 to 100 nM.

Consider `Cn1nccc1-c1ccc2c(c1)NCN([C@H](CO)c1cccc(Cl)c1)C2=O` [Compound 526], for which the values for the IC50 in assay [1] and in assay [2] were more than 500 nM and more than 501 nM, respectively.

For `CNC(=O)c1cccc(Cn2ccc3cc(-c4ccnc(N)c4)ncc3c2=O)c1` [Compound 244], the IC50 lay in the range of 10 to 100 nM in assay [1] and 101 to 500 nM in assay [2].

Regarding `CC(=O)Nc1cccc(Cn2ccc3cc(-c4ccoc4C)ccc3c2=O)c1` [Compound 332, N-(3-((6-(2-methylfuran-3-yl)-1-oxoisoquinolin-2(1H)-yl)methyl)phenyl)acetamide], the values for the IC50 in assay [1] and in assay [2] were 100 to 500 nM and more than 501 nM, respectively.

Turning to `CN(C)CCNC(=O)c1cccc(Cn2cnc3cc(-c4cn[nH]c4C(F)F)ccc3c2=O)c1` [Compound 394], the IC50 in assay [1] was in the range of 10 to 100 nM; in assay [2], 11 to 100 nM.

Turning to `CNC(=O)c1cccc(Cn2ccc3cc(-c4cn[nH]c4Cl)ccc3c2=O)c1` [Compound 290], the IC50 was less than 10 nM in assay [1] and 11 to 100 nM in assay [2].

`O=C(N[C@H]1CC[C@@H](O)CC1)c1cccc(Cn2cnc3cc(-c4cn[nH]c4C(F)(F)F)ccc3c2=O)c1` [Compound 382]: the 50% inhibitory concentration (IC50) is less than 10 nM in assay [1] and 11 to 100 nM in assay [2].

Regarding `COc1cccc(Cn2ccc3cc(-c4c[nH]nc4C(F)(F)F)ccc3c2=O)c1` [Compound 6], the 50% inhibitory concentration (IC50) in assay [1] is less than 10 nM; in assay [2], 11 to 100 nM.

As for `O=C(NCC1CCN(CC(F)(F)F)CC1)c1cc(F)cc(Cn2ccc3cc(N4CCOCC4)ccc3c2=O)c1` [Compound 221], the figures for the concentration for half-maximal inhibition (IC50) in assay [1] and in assay [2] were 10 to 100 nM and 101 to 500 nM, respectively.

As for `CN1CCC(CNC(=O)c2cc(F)cc(Cn3ccc4cc(-c5c[nH]nc5C(F)F)ncc4c3=O)c2)CC1` [Compound 274], the IC50 in assay [1] and in assay [2] was less than 10 nM each time.

With `O=C1c2ccc(-c3cn[nH]c3C(F)(F)F)cc2NCN1[C@H](CO)c1cccc(Cl)c1` [Compound 524], the 50% inhibitory concentration (IC50) in assay [1] is 100 to 500 nM; in assay [2] it was more than 501 nM.

Regarding `CNC(=O)c1cc(F)cc(Cn2ccc3cc(N4CCOCC4)ccc3c2=O)c1` [Compound 329], the 50% inhibitory concentration (IC50) in assay [1] lay within 10 to 100 nM; in assay [2], 101 to 500 nM.

`Cn1nccc1-c1ccc2c(=O)n(Cc3cccc(C(=O)NCC4CC(O)C4)c3)ccc2c1` (stereo not shown) [Compound 167]: the IC50 in assay [1] is less than 10 nM; in assay [2], 11 to 100 nM.

For the compound `CNC(=O)c1cccc([C@H](C)n2cnc3cc(-c4cn[nH]c4Cl)ccc3c2=O)c1` [Compound 468], the figures for the 50% inhibitory concentration (IC50) in assay [1] and in assay [2] were 10 to 100 nM and 101 to 500 nM, respectively.

For the compound `CNC(=O)c1cncc(Cn2ccc3cc(-c4conc4C)ccc3c2=O)c1` [Compound 312], the IC50 in assay [1] fell in the range of 10 to 100 nM; in assay [2] it was 101 to 500 nM.

For the compound `CNC(=O)c1cccc(Cn2ccc3cc(-c4c[nH]nc4Cl)ncc3c2=O)c1` [Compound 235], the IC50 is less than 10 nM in assay [1] and 11 to 100 nM in assay [2].

For the compound `CC(=O)Nc1cccc(Cn2ccc3cc(-c4conc4C)ccc3c2=O)c1` [Compound 347], the values for the IC50 in assay [1] and in assay [2] were 10 to 100 nM and 101 to 500 nM, respectively.

Consider `CN1CCC(NC(=O)c2cc(F)cc(Cn3ccc4cc(-c5c[nH]nc5Cl)ncc4c3=O)c2)CC1` [Compound 261], for which the IC50 in assay [1] and in assay [2] was less than 10 nM each time.

As to `N#Cc1cccc(C(CN)n2cnc3cc(-c4ccnc(F)c4)ccc3c2=O)c1` (stereo not shown) [Compound 502, 3-(2-amino-1-(7-(2-fluoropyridin-4-yl)-4-oxoquinazolin-3(4H)-yl)ethyl)benzonitrile], the IC50 in assay [1] is 100 to 500 nM; in assay [2] it was more than 501 nM.

In the case of `COc1cccc(Cn2cnc3cc(-c4cn[nH]c4)ccc3c2=O)c1` [Compound 354, 3-(3-methoxybenzyl)-7-(1H-pyrazol-4-yl)quinazolin-4(3H)-one], the IC50 is 10 to 100 nM in assay [1] and 11 to 100 nM in assay [2].

`CN1CCC(NC(=O)c2cccc(Cn3ccc4cc(-c5ccnn5C)ccc4c3=O)c2)CC1` [Compound 106]: the concentration for half-maximal inhibition (IC50) in assay [1] and in assay [2] was less than 10 nM in each case.

For the compound `CNC(=O)c1cccc(Cn2ccc3cc(-c4conc4C)ccc3c2=O)n1` [Compound 311], the IC50 was 100 to 500 nM in assay [1] and more than 501 nM in assay [2].

Turning to `O=C(NC1CCNCC1)c1cccc(Cn2ccc3cc(-c4c[nH]nc4C(F)(F)F)ccc3c2=O)c1` [Compound 46], the concentration for half-maximal inhibition (IC50) in assay [1] and in assay [2] was less than 10 nM in each case.

For `Cc1nocc1-c1ccc2c(=O)n(Cc3cccc(C(=O)N[C@H]4C[C@@H](O)C4)c3)ccc2c1` [Compound 72], the 50% inhibitory concentration (IC50) in assay [1] lay within 10 to 100 nM; in assay [2], 101 to 500 nM.

For `Cc1nocc1-c1ccc2c(=O)n(Cc3cc(F)cc(C(=O)Nc4nc5c(s4)CCNC5)c3)ccc2c1` [Compound 157], the values for the half-maximal inhibitory concentration (IC50) in assay [1] and in assay [2] were less than 10 nM and 11 to 100 nM, respectively.

As to `CNC(=O)c1cccc(Cn2cc(CCO)c3cc(-c4cn[nH]c4F)ccc3c2=O)c1` [Compound 555], the IC50 is less than 10 nM in assay [1] and 11 to 100 nM in assay [2].

The values are drawn from patent publication US12064426B2, “Selective inhibitors of ROCK1 and ROCK2 protein kinases and uses thereof” (GENOSCO Inc., priority 2021, dated 2024).
